Data published in the supplement of paper PMC5908809.

What was measured:
[1] = test system: normal primary NK cells, pool 1 (3 donors) (IL-2 2.5 ng/mL); assay: drug sensitivity score (DSS) (DSS units); higher = more sensitive; extreme values may be limits of the assay; settings: 72 h
[2] = test system: normal primary NK cells, pool 3 (3 donors) (IL-2 2.5 ng/mL); assay: as above; settings: 72 h
[3] = test system: IMC-1 (IL-2 20 ng/mL); assay: as above; settings: 72 h
[4] = test system: NK-YS (IL-2 2.5 ng/mL); assay: as above; settings: 72 h
[5] = test system: SNK-6 (IL-2 2.5 ng/mL); assay: as above; settings: 72 h
[6] = test system: normal primary NK cells, pool 2 (3 donors) (IL-2 2.5 ng/mL); assay: as above; settings: 72 h
[7] = test system: KHYG-1 (IL-2 2.5 ng/mL); assay: as above; settings: 72 h
[8] = test system: YT (IL-2 2.5 ng/mL); assay: as above; settings: 72 h
[9] = test system: NK-92 (IL-2 2.5 ng/mL); assay: as above; settings: 72 h
[10] = test system: normal primary NK cells, pool 1 (3 donors), resting (IL-2 0 ng/mL); assay: as above; settings: 72 h
[11] = test system: DERL-7 (IL-2 2.5 ng/mL); assay: as above; settings: 72 h
[12] = test system: KAI3 (IL-2 2.5 ng/mL); assay: as above; settings: 72 h
[13] = test system: NKL (IL-2 2.5 ng/mL); assay: as above; settings: 72 h
[14] = test system: normal NK cells expanded with K562-aAPC; assay: as above; settings: 72 h; IL-2 2.5 ng/mL
Description: (§1)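 Drug sensitivity and resistance testing on K562-aAPC-expanded normal NK cells: 5 concentrations (10-fold steps over a 10,000-fold range), 72 h at 37 °C, viability by CellTiter-Glo normalised to DMSO and benzethonium chloride controls; DSS from the fitted curve.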

[15] = test system: normal NK cells expanded with K562-aAPC; assay: percent inhibition of viability; higher = more inhibition; settings: 72 h, IL-2 2.5 ng/mL
Description: as §1

[16] = test system: normal primary NK cells, pool 1 (3 donors) (IL-2 2.5 ng/mL); assay: as above; settings: 72 h
[17] = test system: normal primary NK cells, pool 3 (3 donors) (IL-2 2.5 ng/mL); assay: as above; settings: 72 h
[18] = test system: IMC-1 (IL-2 20 ng/mL); assay: as above; settings: 72 h
[19] = test system: NK-YS (IL-2 2.5 ng/mL); assay: as above; settings: 72 h
[20] = test system: SNK-6 (IL-2 2.5 ng/mL); assay: as above; settings: 72 h
[21] = test system: normal primary NK cells, pool 2 (3 donors) (IL-2 2.5 ng/mL); assay: as above; settings: 72 h
[22] = test system: KHYG-1 (IL-2 2.5 ng/mL); assay: as above; settings: 72 h
[23] = test system: YT (IL-2 2.5 ng/mL); assay: as above; settings: 72 h
[24] = test system: NK-92 (IL-2 2.5 ng/mL); assay: as above; settings: 72 h
[25] = test system: normal primary NK cells, pool 1 (3 donors), resting (IL-2 0 ng/mL); assay: as above; settings: 72 h
[26] = test system: DERL-7 (IL-2 2.5 ng/mL); assay: as above; settings: 72 h
[27] = test system: KAI3 (IL-2 2.5 ng/mL); assay: as above; settings: 72 h
[28] = test system: NKL (IL-2 2.5 ng/mL); assay: as above; settings: 72 h

Cc1c(Cn2c(C)nc3c(C(=O)O)cc(N4CCOCC4)cc32)cccc1C(F)(F)F (max concentration tested 10000 nM)
Settings | drug sensitivity score
[1] | 0
[2] | 0.01
[3] | 0
[4] | 0.34
[5] | 0.03
[6] | 0.23
[7] | 3.2
[8] | 1.67
[9] | 3.86
[10] | 0
[11] | 0.85
[12] | 3.6
[13] | 0.29
[14] | 1.17

percent inhibition of viability [%]
Settings | 1 nM | 10 nM | 100 nM | 1000 nM | 10000 nM
[15] | 2.47 | -0.33 | 2.82 | 11.7 | 17.4
[16] | -6.21 | 1.65 | -5.56 | -4.02 | 4.77
[17] | -1.55 | 0.84 | 4.49 | -0.45 | 11.4
[18] | -6.71 | -4.25 | -1.73 | -3.09 | 11.3
[19] | -2.91 | -0.33 | 7.31 | 5.6 | 15.8
[20] | -7.05 | -21.9 | 3.71 | -6.21 | 13.1
[21] | -11.1 | -13.9 | -1.99 | 1.31 | 13.6
[22] | -2.27 | 6.11 | 14.1 | 8.86 | 38.2
[23] | 1 | 6.27 | 9.12 | 14.3 | 16.5
[24] | -7.97 | -2.84 | 22 | 7.51 | 49
[25] | -5.25 | 4.41 | 3.22 | -19.1 | -11.9
[26] | 3.53 | -4.49 | 1.36 | 12.1 | 13.4
[27] | 8.08 | 9.48 | 9.01 | 12.5 | 37.9
[28] | -15.7 | -8.49 | -1.03 | 1.51 | 14.1

C[C@@H](Oc1ccc2[nH]nc(/C=C/c3cnn(CCO)c3)c2c1)c1c(Cl)cncc1Cl (max concentration tested 1000 nM)
Settings | drug sensitivity score
[1] | 11.4
[2] | 12.7
[3] | 8.86
[4] | 12.9
[5] | 20.8
[6] | 15.3
[7] | 21.6
[8] | 6.34
[9] | 12.9
[10] | 0.82
[11] | 11.6
[12] | 17.6
[13] | 19.4
[14] | 20.3

percent inhibition of viability [%]
Settings | 0.1 nM | 1 nM | 10 nM | 100 nM | 1000 nM
[15] | -0.71 | -1.93 | 22.3 | 94.3 | 97.8
[16] | -3.85 | -11 | 2.43 | 60.1 | 72.1
[17] | -11.8 | -16.6 | 7.47 | 63.4 | 69.5
[18] | 2.17 | -5.43 | -8.61 | 21.8 | 98.1
[19] | -6.71 | -5.42 | 10.9 | 60.3 | 93
[20] | -12 | 0.34 | 23.3 | 95 | 92.3
[21] | -12.2 | -5.79 | 27.6 | 62.9 | 71.7
[22] | -1.37 | -1.77 | 23.3 | 101 | 98.7
[23] | -2.34 | -5.3 | -2.2 | 9.63 | 85.6
[24] | -7.71 | -11 | 4.63 | 65.8 | 84.5
[25] | -1.49 | -11.6 | -11.3 | 13.6 | 13.4
[26] | -4.25 | -1.44 | 12.1 | 50 | 100
[27] | 2.24 | 4.1 | 25 | 79.6 | 90.2
[28] | -5.85 | 0.25 | 37.2 | 79.9 | 84.6

CCN(c1cc(-c2ccc(CN3CCOCC3)cc2)cc(C(=O)NCc2c(C)cc(C)[nH]c2=O)c1C)C1CCOCC1 [E7438] (max concentration tested 10000 nM)
Settings | drug sensitivity score
[1] | 0
[4] | 0
[5] | 0
[7] | 0
[8] | 0
[9] | 3.24
[10] | 0
[11] | 0
[12] | 0
[13] | 0

percent inhibition of viability [%]
Settings | [16] | [19] | [20] | [22] | [23] | [24] | [25] | [26] | [27] | [28]
1 nM | 3.3 | -4.53 | 1.4 | -5.22 | -6.25 | -6.98 | 6.57 | 7.34 | -4.36 | -13.6
10 nM | -9.28 | -0.35 | 5.22 | -1.93 | -2.68 | -6.59 | -0.47 | 4.06 | 3.43 | -3.23
100 nM | 3.33 | 5.89 | 2.14 | 0.98 | 0.66 | 11.7 | 9.19 | 9.96 | 0.88 | 3.68
1000 nM | -10.7 | 2.91 | 2.9 | 0.03 | -5.62 | 12.3 | -13.6 | 1.71 | -7.37 | 3.36
10000 nM | -1.96 | 11.4 | -16.1 | 4.04 | 0.29 | 18 | 3.73 | 11.7 | -7.23 | -3.21

CCCCCOC(=O)Nc1nc(=O)n([C@@H]2O[C@H](C)[C@@H](O)[C@H]2O)cc1F [Capecitabine] (max concentration tested 10000 nM)
Settings | drug sensitivity score
[1] | 0
[2] | 0
[3] | 0
[4] | 1.92
[5] | 6.62
[6] | 0
[7] | 0
[8] | 2.47
[9] | 0
[10] | 1.76
[11] | 3.42
[12] | 4.96
[13] | 0
[14] | 0

percent inhibition of viability [%]
Settings | 1 nM | 10 nM | 100 nM | 1000 nM | 10000 nM
[15] | -1.3 | 3.24 | -1.87 | -1.09 | -2.22
[16] | -11.1 | -11.6 | 0.78 | -4.13 | -5.4
[17] | 0.26 | 5.64 | 1.92 | 7.05 | 2.46
[18] | -3.3 | -4.34 | -6.24 | -6.22 | -8.14
[19] | -5.86 | -8.43 | -2.42 | -0.04 | 39
[20] | 12 | 11.5 | 0.05 | 16.4 | 72.5
[21] | -2.47 | 1.21 | -0.29 | -0.41 | -2.27
[22] | -4.65 | -8.98 | -2.6 | -4.39 | -2.75
[23] | -3.7 | -7.15 | -2.55 | -0.84 | 48.6
[24] | -10.2 | 1.4 | 2.48 | -3.88 | 10.2
[25] | -8.89 | -7.83 | 13.7 | 10.2 | 11
[26] | 0.46 | 4.42 | -2.34 | 4.15 | 52.2
[27] | 1.53 | 10.3 | 11 | 18.4 | 51.4
[28] | -14.2 | -5.91 | -4.8 | 5.16 | -0.14
